Results: patent publication US8835432B2, “Heterocyclic compounds and their uses” (Amgen Inc., priority 2012, dated 2014)
pIC50: −log10 of the molar value.

Legend:
[1] = target: T1, PI3K d (Homo sapiens, UniProt O00329); experiment: In vitro enzyme assay, PI3K delta; assay type: biochemical
T1 construct: Full length p110 subunits of PI3k α, β and δ, N-terminally labeled with polyHis tag; polyHis (N); made in house; host or cells: Sf9 insect cells (baculovirus)
Protocol: (§1) Full length p110 subunits of PI3k α, β and δ, N-terminally labeled with polyHis tag, were coexpressed with p85 with Baculo virus expression vectors in sf9 insect cells. P110/p85 heterodimers were purified by sequential Ni-NTA, Q-HP, Superdex-100 chromatography. Purified α, β and δ isozymes were stored at −20° C. in 20 mM Tris, pH 8, 0.2M NaCl, 50% glycerol, 5 mM DTT, 2 mM Na cholate. Truncated PI3Kγ, residues 114-1102, N-terminally labeled with polyHis tag, was expressed with Baculo virus in Hi5 insect cells. The γ isozyme was purified by sequential Ni-NTA, Superdex-200, Q-HP chromatography. The γ isozyme was stored frozen at −80° C. in NaH2PO4, pH 8, 0.2M NaCl, 1% ethylene glycol, 2 mM β-mercaptoethanol.
(§2) Assays were performed in 25 μL with the above final concentrations of components in white polyproplyene plates (Costar 3355). Phospatidyl inositol phosphoacceptor, PtdIns(4,5)P2 P4508, was from Echelon Biosciences. The ATPase activity of the alpha and gamma isozymes was not greatly stimulated by PtdIns(4,5)P2 under these conditions and was therefore omitted from the assay of these isozymes. Test compounds were dissolved in dimethyl sulfoxide and diluted with three-fold serial dilutions. The compound in DMSO (1 μL) was added per test well, and the inhibition relative to reactions containing no compound, with and without enzyme was determined After assay incubation at rt, the reaction was stopped and residual ATP determined by addition of an equal volume of a commercial ATP bioluminescence kit (Perkin Elmer EasyLite) according to the manufacturer's instructions, and detected using a AnalystGT luminometer.

[2] = system: PI3K b; experiment: In vitro enzyme assay, PI3K beta; assay type: biochemical; conditions: ratio of beta to delta IC50
Protocol: as §1, §2

[3] = target: T2, PI3Ka (Homo sapiens, UniProt P42336); experiment: In vitro enzyme assay, PI3K alpha; assay type: biochemical
T2 construct: Full length p110 subunits of PI3k α, β and δ, N-terminally labeled with polyHis tag; polyHis (N); made in house; host or cells: Sf9 insect cells (baculovirus)
T2 sequence (P42336 whole entry): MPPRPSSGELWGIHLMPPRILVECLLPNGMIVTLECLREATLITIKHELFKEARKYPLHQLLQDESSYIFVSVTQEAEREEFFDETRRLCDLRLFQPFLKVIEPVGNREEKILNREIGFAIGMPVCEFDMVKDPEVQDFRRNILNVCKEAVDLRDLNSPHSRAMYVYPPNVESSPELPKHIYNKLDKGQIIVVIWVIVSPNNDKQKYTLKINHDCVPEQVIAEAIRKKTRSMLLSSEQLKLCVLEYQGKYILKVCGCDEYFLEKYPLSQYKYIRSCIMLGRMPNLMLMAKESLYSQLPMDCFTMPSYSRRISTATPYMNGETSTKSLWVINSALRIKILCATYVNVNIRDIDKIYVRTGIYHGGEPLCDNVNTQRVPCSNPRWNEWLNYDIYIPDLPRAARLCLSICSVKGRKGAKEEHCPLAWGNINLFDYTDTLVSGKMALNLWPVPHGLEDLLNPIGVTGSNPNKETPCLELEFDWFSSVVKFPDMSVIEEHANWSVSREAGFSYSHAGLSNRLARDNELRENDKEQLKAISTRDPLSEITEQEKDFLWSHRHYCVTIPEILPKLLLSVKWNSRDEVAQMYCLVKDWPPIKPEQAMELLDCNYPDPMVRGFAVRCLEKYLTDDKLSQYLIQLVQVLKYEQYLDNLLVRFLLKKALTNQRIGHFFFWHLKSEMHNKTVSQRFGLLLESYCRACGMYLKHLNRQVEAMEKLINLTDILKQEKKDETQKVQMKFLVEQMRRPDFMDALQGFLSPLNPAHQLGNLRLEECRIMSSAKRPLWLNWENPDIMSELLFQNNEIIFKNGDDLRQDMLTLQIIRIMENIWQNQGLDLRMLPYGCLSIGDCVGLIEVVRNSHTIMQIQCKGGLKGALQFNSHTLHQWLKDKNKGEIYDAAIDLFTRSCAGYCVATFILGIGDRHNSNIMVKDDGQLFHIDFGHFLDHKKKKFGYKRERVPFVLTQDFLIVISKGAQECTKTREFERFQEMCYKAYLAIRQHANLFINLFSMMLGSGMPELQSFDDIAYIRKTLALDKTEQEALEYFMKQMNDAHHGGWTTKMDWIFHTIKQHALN
T2 sequence (P27986 whole entry partner): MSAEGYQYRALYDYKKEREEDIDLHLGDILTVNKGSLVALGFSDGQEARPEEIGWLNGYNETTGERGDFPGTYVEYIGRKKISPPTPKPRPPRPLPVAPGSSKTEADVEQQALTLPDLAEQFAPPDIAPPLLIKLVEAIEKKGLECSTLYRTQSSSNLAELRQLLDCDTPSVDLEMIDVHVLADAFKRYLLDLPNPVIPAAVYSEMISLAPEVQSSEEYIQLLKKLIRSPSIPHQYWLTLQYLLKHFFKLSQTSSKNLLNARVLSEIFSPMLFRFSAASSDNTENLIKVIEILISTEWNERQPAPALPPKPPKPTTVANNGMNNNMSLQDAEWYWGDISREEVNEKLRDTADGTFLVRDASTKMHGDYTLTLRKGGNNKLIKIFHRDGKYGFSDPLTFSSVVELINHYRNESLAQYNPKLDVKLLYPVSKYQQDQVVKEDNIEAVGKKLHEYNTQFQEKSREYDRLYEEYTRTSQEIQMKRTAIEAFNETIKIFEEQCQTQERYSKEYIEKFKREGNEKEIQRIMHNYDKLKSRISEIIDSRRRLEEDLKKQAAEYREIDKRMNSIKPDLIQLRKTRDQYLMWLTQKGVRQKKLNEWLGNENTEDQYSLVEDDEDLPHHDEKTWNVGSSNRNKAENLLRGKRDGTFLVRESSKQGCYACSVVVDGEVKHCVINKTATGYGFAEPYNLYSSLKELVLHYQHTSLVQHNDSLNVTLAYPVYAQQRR
Protocol: as §1, §2

[4] = target: T3, PI3Kg (Homo sapiens, UniProt P48736); experiment: In vitro enzyme assay, PI3K gamma; assay type: biochemical
T3 construct: Truncated PI3Kγ, residues 114-1102, N-terminally labeled with polyHis tag; polyHis (N); made in house; host or cells: Hi5 insect cells (baculovirus)
T3 sequence (P48736 114-1102): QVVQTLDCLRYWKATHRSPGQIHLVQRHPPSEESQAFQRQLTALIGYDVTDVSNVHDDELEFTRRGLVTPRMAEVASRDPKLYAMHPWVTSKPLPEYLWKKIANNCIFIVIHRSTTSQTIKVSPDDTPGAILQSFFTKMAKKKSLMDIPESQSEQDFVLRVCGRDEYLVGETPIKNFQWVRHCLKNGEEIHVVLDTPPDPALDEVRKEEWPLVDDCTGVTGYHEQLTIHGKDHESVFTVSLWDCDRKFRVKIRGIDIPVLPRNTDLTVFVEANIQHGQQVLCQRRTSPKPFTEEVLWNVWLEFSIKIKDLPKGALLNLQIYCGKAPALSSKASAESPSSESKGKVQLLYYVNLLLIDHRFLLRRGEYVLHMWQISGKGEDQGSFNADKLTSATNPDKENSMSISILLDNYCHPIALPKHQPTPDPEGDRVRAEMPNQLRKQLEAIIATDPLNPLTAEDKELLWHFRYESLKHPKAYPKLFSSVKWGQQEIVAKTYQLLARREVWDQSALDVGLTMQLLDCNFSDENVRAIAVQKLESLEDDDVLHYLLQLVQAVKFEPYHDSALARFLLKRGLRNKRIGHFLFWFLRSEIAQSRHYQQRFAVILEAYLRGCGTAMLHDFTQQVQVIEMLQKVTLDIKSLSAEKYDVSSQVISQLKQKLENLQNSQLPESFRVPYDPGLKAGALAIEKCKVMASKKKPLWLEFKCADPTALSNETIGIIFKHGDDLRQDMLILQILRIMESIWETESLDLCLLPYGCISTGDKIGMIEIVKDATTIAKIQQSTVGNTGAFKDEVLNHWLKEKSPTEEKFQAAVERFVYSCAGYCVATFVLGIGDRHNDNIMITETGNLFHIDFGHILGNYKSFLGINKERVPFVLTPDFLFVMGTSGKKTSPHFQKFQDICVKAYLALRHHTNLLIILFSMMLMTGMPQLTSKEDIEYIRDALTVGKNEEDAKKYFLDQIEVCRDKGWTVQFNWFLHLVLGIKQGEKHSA
Protocol: as §1, §2

[5] = system: Human B cells; experiment: Human B cells proliferation stimulated by anti-IgM; assay type: cell-based; conditions: Hu B Cell anti-IgM, note under the cell, read-out: on target anti-IgM (Hu B Cell anti-IgM)
Protocol: Human B Cells Proliferation Stimulate by Anti-IgM
Isolate PBMCs from Leukopac or from human fresh blood. Isolate human B cells by using Miltenyi protocol and B cell isolation kit II.-human B cells were Purified by using AutoMacs.column.
Activation of Human B Cells
Use 96 well Flat bottom plate, plate 50000/well purified B cells in B cell proliferation medium (DMEM+5% FCS, 10 mM Hepes, 50 μM 2-mercaptoethanol); 150 μL medium contain 250 ng/mL CD40L-LZ recombinant protein (Amgen) and 2 μg/mL anti-Human IgM antibody (Jackson ImmunoReseach Lab.#109-006-129), mixed with 50 μL B cell medium containing PI3K inhibitors and incubate 72 h at 37° C. incubator. After 72 h, pulse labeling B cells with 0.5-1 uCi/well ^3H thymidine for overnight ˜18 h, and harvest cell using TOM harvester.

[6] = target: T4, PI3KIII (Homo sapiens, UniProt Q8NEB9); experiment: Class III PI(3)P assay (U20S EGFP-2XFYVE cells); assay type: cell-based
T4 construct: host or cells: U2OS EGFP-2XFYVE cells
Protocol: (§3) GFP Assays for Detecting Inhibition of Class Ia and Class III PI3K
FYVE domains bind to PI(3)P. the majority is generated by constitutive action of PI3K Class III
Class III PI(3)P assay (U20S EGFP-2XFYVE Cells/GE Healthcare)
Wash cells with assay buffer. Treat with compounds in assay buffer 1 h. Fix and image.
Control for all 3 assays is […] Wortmannin:
PI(3)P depleted from endosomes

[7] = target: T5, PI3Kb (Homo sapiens, UniProt P42338); experiment: Forkhead translocation assay (MDA MB468 Forkhead-DiversaGFP cells); assay type: cell-based; parameters: endogenous in cells; host or cells: MDA MB468 (Forkhead-DiversaGFP) cells; conditions: first value of the cell; MDA468 forkhead; read-out: PI3KbMDA468 FH
T5 sequence (P42338 whole entry): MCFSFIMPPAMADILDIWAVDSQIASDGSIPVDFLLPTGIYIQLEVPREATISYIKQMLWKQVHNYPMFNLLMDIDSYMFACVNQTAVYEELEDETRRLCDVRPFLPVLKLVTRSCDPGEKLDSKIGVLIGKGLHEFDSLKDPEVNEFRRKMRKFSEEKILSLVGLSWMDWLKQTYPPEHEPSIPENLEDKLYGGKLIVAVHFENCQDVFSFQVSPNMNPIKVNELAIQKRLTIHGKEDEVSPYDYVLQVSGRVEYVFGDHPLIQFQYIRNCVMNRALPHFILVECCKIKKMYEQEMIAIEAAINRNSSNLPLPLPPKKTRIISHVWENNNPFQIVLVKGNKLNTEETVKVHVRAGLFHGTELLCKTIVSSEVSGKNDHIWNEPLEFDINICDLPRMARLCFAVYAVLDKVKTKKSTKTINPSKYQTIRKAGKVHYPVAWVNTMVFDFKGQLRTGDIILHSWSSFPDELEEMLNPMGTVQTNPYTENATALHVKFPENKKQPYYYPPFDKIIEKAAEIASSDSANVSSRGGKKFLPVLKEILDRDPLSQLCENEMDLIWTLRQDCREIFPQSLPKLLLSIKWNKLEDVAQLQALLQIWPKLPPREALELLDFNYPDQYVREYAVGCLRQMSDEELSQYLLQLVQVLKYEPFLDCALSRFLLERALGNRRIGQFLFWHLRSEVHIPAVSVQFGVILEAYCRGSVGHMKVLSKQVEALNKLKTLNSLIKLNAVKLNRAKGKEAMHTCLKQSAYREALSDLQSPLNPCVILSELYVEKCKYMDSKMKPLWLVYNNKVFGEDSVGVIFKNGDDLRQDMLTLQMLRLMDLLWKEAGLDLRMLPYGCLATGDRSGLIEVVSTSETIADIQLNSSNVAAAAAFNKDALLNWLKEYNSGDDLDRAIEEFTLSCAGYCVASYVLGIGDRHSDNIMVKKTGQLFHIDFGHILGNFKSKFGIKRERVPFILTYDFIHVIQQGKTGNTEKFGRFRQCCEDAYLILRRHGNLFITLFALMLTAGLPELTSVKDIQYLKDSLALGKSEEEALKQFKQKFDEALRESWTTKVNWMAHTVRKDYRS
T5 sequence (P27986 whole entry partner): as the sequence (P27986 whole entry partner) above
Protocol: as §3
Forkhead (FKHRL1) is a substrate for AKT1. It is cytoplasmic when phosphorylated by AKT (survival/growth). Inhibition of AKT (stasis/apoptosis)-forkhead translocation to the nucleus
Forkhead Translocation Assay (MDA MB468 Forkhead-DiversaGFP Cells)
Treat cells with compound in growth medium 1 h. Fix and image.

[8] = target: T5, PI3Kb; experiment: In vitro enzyme assay, PI3K beta; assay type: biochemical; parameters: Full length p110 subunits of PI3k α, β and δ, N-terminally labeled with polyHis tag; polyHis (N); made in house; host or cells: Sf9 insect cells (baculovirus); conditions: read-out: P13K b IC50
Protocol: as §1, §2

T1 sequence (O00329 whole entry): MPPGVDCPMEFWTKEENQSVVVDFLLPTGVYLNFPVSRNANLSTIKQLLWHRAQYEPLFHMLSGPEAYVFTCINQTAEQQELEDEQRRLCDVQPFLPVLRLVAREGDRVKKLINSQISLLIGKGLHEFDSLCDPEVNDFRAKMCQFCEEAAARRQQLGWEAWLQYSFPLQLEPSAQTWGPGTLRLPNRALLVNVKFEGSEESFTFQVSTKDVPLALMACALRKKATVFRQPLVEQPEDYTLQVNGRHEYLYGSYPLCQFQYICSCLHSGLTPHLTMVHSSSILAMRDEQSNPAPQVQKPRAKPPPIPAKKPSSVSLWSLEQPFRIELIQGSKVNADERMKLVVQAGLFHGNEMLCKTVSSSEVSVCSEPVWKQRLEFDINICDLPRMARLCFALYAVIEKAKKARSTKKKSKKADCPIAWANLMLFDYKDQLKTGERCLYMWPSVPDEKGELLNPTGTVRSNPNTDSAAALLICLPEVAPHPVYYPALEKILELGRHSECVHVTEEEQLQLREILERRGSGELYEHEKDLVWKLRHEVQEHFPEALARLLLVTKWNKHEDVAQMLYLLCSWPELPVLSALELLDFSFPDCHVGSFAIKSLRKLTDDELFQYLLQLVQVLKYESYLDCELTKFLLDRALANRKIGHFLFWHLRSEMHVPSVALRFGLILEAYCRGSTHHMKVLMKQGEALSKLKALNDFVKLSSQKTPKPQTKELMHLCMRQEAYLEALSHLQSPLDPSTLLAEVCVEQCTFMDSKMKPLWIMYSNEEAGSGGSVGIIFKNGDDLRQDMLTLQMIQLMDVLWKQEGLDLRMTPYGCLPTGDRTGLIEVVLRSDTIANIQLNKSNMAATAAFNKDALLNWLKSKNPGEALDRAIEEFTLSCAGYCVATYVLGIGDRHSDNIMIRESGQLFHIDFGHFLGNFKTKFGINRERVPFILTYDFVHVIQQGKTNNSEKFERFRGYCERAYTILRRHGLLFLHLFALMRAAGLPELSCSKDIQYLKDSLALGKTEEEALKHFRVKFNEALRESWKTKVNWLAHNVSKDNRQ
T1 sequence (P27986 whole entry partner): as the sequence (P27986 whole entry partner) above

pIC50 [1]: 7.93 | PI3K: b/d [2]: 213 | PI3Ka IC50 [3]: 12.7000 µM | PI3K: a/d ([3]; ratio of alpha to delta IC50): 1085 | pIC50 [4]: 5.41 | PI3K: g/d ([4]; ratio of gamma to delta IC50): 333 | pIC50 [6]: < 5.00 | pIC50 [7]: < 5.00 | pIC50 [8]: 5.60
SMILES: C[C@H](Nc1ncnc(N)c1C#N)c1nc2ccc(F)cc2nc1-c1ccccn1 [Example 7, (S)-4-Amino-6-((1-(6-fluoro-3-(pyridin-2-yl)quinoxalin-2-yl)ethyl)amino)-pyrimidine-5-carbonitrile]
pIC50 [5]: 7.98
